From US12319689B2, “Methyl- and trifluoromethyl-containing disubstituted sulfonamide selective BCL-2 inhibitor” (CHIA TAI TIANQING PHARMACEUTICAL GROUP CO., LTD., priority 2019, dated 2025)
pIC50: −log10 of the molar value.

Columns and labels:
[1] = tested on: RS4;11 cells; assay: Inhibition of proliferation of RS4;11 human acute lymphocytic leukemia cells (CCK-8); assay type: cell-based; details: 72 h compound exposure, CCK-8, 5% serum
Method: RS4;11 cells (from ATCC) in logarithmic growth phase and good cell condition were added to a centrifuge tube and centrifuged at 1500 rpm for 3 min in a low speed centrifuge. The supernatant was discarded, and 5 mL of complete medium (RPMI basic medium+10% FBS) was added using a pipette for cell resuspension. The cells were counted using a cell counter, diluted with complete medium to a cell density of 2×10^5 cells/mL, and an equivalent amount of RPMI basic medium was added to adjust the serum concentration to 5% and the cell density to 1×10^5 cells/mL for plate seeding. The cells were seeded on a 96-well plate at 100 μL/well using a pipettor, and incubated in an incubator at 37° C., 5% CO2 with saturated humidity. After 24 h of incubation, compounds were loaded using a nanoliter pipettor, 2 duplicate wells were set for each concentration, and cells without compound were used as negative controls. […] Inhibition rate (%)=(mean value of negative control group−mean value of experimental group)/(mean value of negative control group−mean value of blank group)×100%. A dose-response curve was fitted by four-parameter analysis, with the logarithm of compound concentration serving as abscissa and inhibition rate serving as ordinate, so that IC50 was calculated (Table 1).

[2] = tested on: RS4;11 human acute lymphoblastic leukemia subcutaneous xenograft tumors; assay: RS4;11 human acute lymphoblastic leukemia mouse subcutaneous tumor xenograft model; assay type: in vivo, NOD/SCID mice; details: 25 mg/kg single intragastric dose; Day 12 after the end of administration
Method: SPF female NOD/SCID mice (Shanghai Lingchang Biotech Co., Ltd.) were inoculated subcutaneously at the right side armpit with 1×10^7 RS4;11 cells (ATCC). When the mean tumor volume reached about 180 mm^3, the mice were divided into 3 groups according to the tumor size: vehicle, compound 1-1 (25 mg/kg) and compound 3-1 (25 mg/kg). The day of grouping was determined as d0. On d1, a single intragastric dose at a volume of 10 mL/kg was administered, and the animals were observed.
The calculation formula for tumor volume: Tumor volume (mm^3)=½×(a×b^2) (where a represents long diameter and b represents short diameter).
Relative tumor proliferation rate (T/C %) refers to the percentage of the relative tumor volume or tumor weight of the treatment and control groups at a certain time point. The calculation formula is as follows: T/C %=TRTV/CRTV×100% (TRTV: mean relative tumor volume (RTV) for treatment group; CRTV: mean RTV for vehicle control group; RTV=TVt/TV0, where TV0 is the tumor volume at grouping, TVt is the tumor volume after treatment).
Tumor growth inhibition rate (TGI %) is calculated according to the following formula: TGI %=(1−T/C)×100%. (T and C are the relative tumor volume (RTV) or tumor weight (TW) at a particular time point for the treatment and control groups, respectively).
The calculation formula for weight change rate (WCR) (%) is: WCR=(Wtt−Wt0)/Wt0×100%, where Wt0 is the body weight of the animal at grouping (i.e., d0), Wtt is the body weight of the animal at each measurement.
All experimental results are expressed as mean±SD (mean±standard deviation). The relative tumor volume of the treatment group was compared with that of the control group for any significant difference by T tests, wherein p<0.05 indicates a significant difference, and p<0.01 indicates a very significant difference.

[3] = biological target: T1, BCL-2/BAK (Homo sapiens, UniProt P10415); assay: Inhibitory activity for BCL-2/BAK binding (Cisbio BCL-2/BAK (BH3) binding assay kit)
T1 construct: purchased Cisbio 63ADK000CB01PEG
T1 sequence (P10415 whole entry): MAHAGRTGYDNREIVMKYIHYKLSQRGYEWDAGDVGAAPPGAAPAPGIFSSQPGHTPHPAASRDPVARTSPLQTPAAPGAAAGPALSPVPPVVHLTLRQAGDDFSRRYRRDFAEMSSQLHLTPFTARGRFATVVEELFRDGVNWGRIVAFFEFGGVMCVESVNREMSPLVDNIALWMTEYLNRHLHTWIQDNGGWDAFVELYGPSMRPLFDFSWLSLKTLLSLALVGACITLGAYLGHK
Method: 500 nM Tag1-BCL-2 protein stock solution and 20 μM Tag2-BAK protein stock solution were diluted to 5 nM and 120 nM respectively with dilution buffer in kit (name: BCL-2/BAK (BH3) BINDING ASSAY KITS, cat. No.: 63ADK000CB01PEG, from Cisbio). 5 μL of Tag1-BCL-2 protein diluent was added to each well, then test compounds dissolved with DMSO were added to the wells with a nanoliter pipettor, allowing the final compound concentrations to be 200 nM to 0.0488 nM (4-fold gradient for 7 concentrations in total). Blank control wells (without enzyme) and negative control wells (with enzyme, plus vehicle DMSO) were set, and 2 replicate wells were set. Finally, 5 μL of Tag2-BAK protein diluent was added to each well, and the mixture was mixed well by centrifugation and incubated at 25° C. for 15 min. 100× anti-Tag1-Eu^3+ and 100× anti-Tag2-XL665 were both diluted to 1× working concentration with the detection buffer in the kit. Anti-Tag1-Eu^3+ and anti-Tag2-XL665 were mixed well in a 1:1 ratio, and the mixture was added to wells at 5 μL/well, and incubated at 25° C. for 2 h or more. The plate was read using a PE Envision multi-functional microplate reader ([…], emission: 665 nm) and IC50 (shown in Table 2) was calculated by four-parameter fitting.

[4] = biological target: T2, BCL-XL/BAK (Homo sapiens, UniProt Q07817); assay: Inhibitory activity for BCL-XL/BAK binding (Cisbio BCL-XL/BAK (BH3) binding assay kit)
T2 construct: purchased Cisbio 63ADK000CB04PEG
T2 sequence (Q07817 whole entry): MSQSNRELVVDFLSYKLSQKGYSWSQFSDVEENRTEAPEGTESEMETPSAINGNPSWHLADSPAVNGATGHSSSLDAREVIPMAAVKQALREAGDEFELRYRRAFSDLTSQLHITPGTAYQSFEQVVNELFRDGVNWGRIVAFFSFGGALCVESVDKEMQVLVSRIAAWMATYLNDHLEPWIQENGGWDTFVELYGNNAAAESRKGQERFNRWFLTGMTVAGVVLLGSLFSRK
Method: 300 nM Tag1-BCL-XL protein stock solution and 10 μM Tag2-BAK protein stock solution were diluted to 2 nM and 80 nM respectively with dilution buffer in kit (name: BCL-XL/BAK (BH3) BINDING ASSAY KITS, cat. No.: 63ADK000CB04PEG, from Cisbio). 5 μL of Tag1-BCL-XL protein diluent was added to each well, then different test compounds dissolved with DMSO were added to the wells with a nanoliter pipettor, allowing the final compound concentrations to be 2000 nM to 0.488 nM (4-fold gradient for 7 concentrations in total). Blank control wells (without enzyme) and negative control wells (with enzyme, plus vehicle DMSO) were set, and 2 replicate wells were set. Finally, 5 μL of Tag2-BAK protein diluent was added to each well, and the mixture was mixed well by centrifugation and incubated at 25° C. for 15 min. 100× anti-Tag1-Eu^3+ and 100× anti-Tag2-XL665 were both diluted to 1× working concentration with the detection buffer in the kit. Anti-Tag1-Eu^3+ and anti-Tag2-XL665 were mixed well in a 1:1 ratio, and the mixture was added to wells at 5 μL/well, and incubated at 25° C. for 2 h or more. The plate was read using a PE Envision multi-functional microplate reader ([…], emission: 665 nm) and IC50 (shown in Table 2) was calculated by four-parameter fitting.

SMILES	pIC50 [1]	Weight change rate (mean ± SD) [2] [%]	pIC50 [3]	pIC50 [4]	Relative tumor volume (mean ± SD) [2]	T/C [2] [%]	TGI [2] [%]	Tumor volume (mean ± SD) [2] [mm^3]
Cc1cc(C(F)(F)F)ccc1C1=C(CN2CCN(c3ccc(C(=O)NS(=O)(=O)c4ccc(NCC5CCOCC5)c([N+](=O)[O-])c4)c(Oc4cnc5[nH]ccc5c4)c3)CC2)CCC(C)(C)C1 [Compound 1-1, 4-(4-{[2-(2-methyl-4-trifluoromethylphenyl)-4,4-dimethylcyclohex-1-enyl]methyl}-piperazin-1-yl)-N-({3-nitro-4-[(tetrahydro-2H-pyran-4-ylmethyl)amino]phenyl}sulfonyl)-2-(1H-pyrrolo[2,3-b]pyridin-5-yloxy)-benzamide]	8.41	8.20 ± 3.58	–	–	2.1 ± 0.6	40.4	59.6	350 ± 80
Cc1cc(C(F)(F)F)ccc1C1=C(CN2CCN(c3ccc(C(=O)NS(=O)(=O)c4ccc(NC[C@H]5COCCO5)c([N+](=O)[O-])c4)c(Oc4cnc5[nH]ccc5c4)c3)CC2)CCC(C)(C)C1 [Compound 3-1]	8.72	5.61 ± 3.61	8.83	–	1.3 ± 0.8	25.0	75.0	213 ± 93
Cc1cc(C(F)(F)F)ccc1C1=C(CN2CCN(c3ccc(C(=O)NS(=O)(=O)c4ccc(NC[C@@H]5CN(C(=O)C(C)C)CCO5)c([N+](=O)[O-])c4)c(Oc4cnc5[nH]ccc5c4)c3)CC2)CCC(C)(C)C1 [Compound 21-1, (R)-4-(4-{[2-(2-methyl-4-trifluoromethylphenyl)-4,4-dimethylcyclohex-1-enyl]methyl}-piperazin-1-yl)-N-({3-nitro-4-[((4-isobutyrylmorpholin-2-yl)methyl)amino]phenyl}sulfonyl)-2-(1H-pyrrolo[2,3-b]pyridin-5-yloxy)-benzamide]	8.26	–	9.14	6.94	–	–	–	–
Cc1cc(C(F)(F)F)ccc1C1=C(CN2CCN(c3ccc(C(=O)NS(=O)(=O)c4ccc(NC[C@H]5CN(S(C)(=O)=O)CCO5)c([N+](=O)[O-])c4)c(Oc4cnc5[nH]ccc5c4)c3)CC2)CCC(C)(C)C1 [Compound 22-1, (S)-4-(4-{[2-(2-methyl-4-trifluoromethylphenyl)-4,4-dimethylcyclohex-1-enyl]methyl}-piperazin-1-yl)-N-({3-nitro-4-[((4-(methylsulfonyl)morpholin-2-yl)methyl)amino]phenyl}sulfonyl)-2-(1H-pyrrolo[2,3-b]pyridin-5-yloxy)-benzamide]	8.66	–	8.88	6.98	–	–	–	–

Second part, led by results:

pIC50 [1]	Weight change rate (mean ± SD) [2] [%]	pIC50 [3]	pIC50 [4]	SMILES	Relative tumor volume (mean ± SD) [2]	T/C [2] [%]	TGI [2] [%]	Tumor volume (mean ± SD) [2] [mm^3]
–	–	8.90	6.66	Cc1cc(C(F)(F)F)ccc1C1=C(CN2CCN(c3ccc(C(=O)NS(=O)(=O)c4ccc(NC[C@H]5CCOC5)c([N+](=O)[O-])c4)c(Oc4cnc5[nH]ccc5c4)c3)CC2)CCC(C)(C)C1 [Compound 9-1, (R)-4-(4-{[2-(2-methyl-4-trifluoromethylphenyl)-4,4-dimethylcyclohex-1-enyl]methyl}-piperazin-1-yl)-N-({3-nitro-4-[((tetrahydrofuran-3-yl)methyl)amino]phenyl}sulfonyl)-2-(1H-pyrrolo[2,3-b]pyridin-5-yloxy)-benzamide]	–	–	–	–
–	–	8.96	6.99	Cc1cc(C(F)(F)F)ccc1C1=C(CN2CCN(c3ccc(C(=O)NS(=O)(=O)c4ccc(NC[C@@H]5CCOC5)c([N+](=O)[O-])c4)c(Oc4cnc5[nH]ccc5c4)c3)CC2)CCC(C)(C)C1 [Compound 10-1, (S)-4-(4-{[2-(2-methyl-4-trifluoromethylphenyl)-4,4-dimethylcyclohex-1-enyl]methyl}-piperazin-1-yl)-N-({3-nitro-4-[((tetrahydrofuran-3-yl)methyl)amino]phenyl}sulfonyl)-2-(1H-pyrrolo[2,3-b]pyridin-5-yloxy)-benzamide]	–	–	–	–
–	–	8.82	6.58	Cc1cc(C(F)(F)F)ccc1C1=C(CN2CCN(c3ccc(C(=O)NS(=O)(=O)c4ccc(NC[C@H]5CCCOC5)c([N+](=O)[O-])c4)c(Oc4cnc5[nH]ccc5c4)c3)CC2)CCC(C)(C)C1 [Compound 15-1, (R)-4-(4-{[2-(2-methyl-4-trifluoromethylphenyl)-4,4-dimethylcyclohex-1-enyl]methyl}-piperazin-1-yl)-N-({3-nitro-4-[((tetrahydropyran-3-yl)methyl)amino]phenyl}sulfonyl)-2-(1H-pyrrolo[2,3-b]pyridin-5-yloxy)-benzamide]	–	–	–	–
–	–	8.68	6.84	Cc1cc(C(F)(F)F)ccc1C1=C(CN2CCN(c3ccc(C(=O)NS(=O)(=O)c4ccc(NC[C@@H]5CCCOC5)c([N+](=O)[O-])c4)c(Oc4cnc5[nH]ccc5c4)c3)CC2)CCC(C)(C)C1 [Compound 16-1, (S)-4-(4-{[2-(2-methyl-4-trifluoromethylphenyl)-4,4-dimethylcyclohex-1-enyl]methyl}-piperazin-1-yl)-N-({3-nitro-4-[((tetrahydropyran-3-yl)methyl)amino]phenyl}sulfonyl)-2-(1H-pyrrolo[2,3-b]pyridin-5-yloxy)-benzamide]	–	–	–	–
